In patent US20180042919A1, “PARP Inhibitors for the Treatment of Major Depressive Disorder and Related Conditions” (East Tennessee State University Research Foundation, priority 2016, published 2018):

Columns and labels:
Format in all cases: in vivo, rat
[1] = system: Male Sprague-Dawley rats; test: Porsolt swim test (forced swim stress test)
Description: Laboratory Animals: The use of animals for this study was approved by the University Committee on Animal Care at East Tennessee State University. All rats were ordered from Envigo, Inc. (Indianapolis, Ind., USA). Male Sprague-Dawley rats (225-250 g upon arrival) were used as subjects in the Porsolt swim test and were socially housed in groups of 2-3 per cage. Rats used as ‘intruders’ in the social defeat paradigm were individually housed and provided enrichment per the NIH Guidelines for the Care and Use of Animals. Intruder rats were male Sprague-Dawley rats (225-250 g). In addition, a total of 14 female Sprague-Dawley rats weighing 175-199 g upon arrival were obtained for the social defeat paradigm and these rats were socially housed for 6 days in the animal colony prior to fallopian tube ligature, performed as previously described. (Szebeni et al., 2016). Sixteen male Long-Evans hooded rats weighing 250-275 g upon arrival were used as ‘residents’ in the social defeat paradigm. A climate-controlled vivarium was utilized and animals were kept on a 12 h on/12 off light/dark cycle. Porsolt swim test: Different groups of animals were tested in the Porsolt swim test. Rats were treated using the same drug treatment regimen as with the SDS/CUS paradigm, except as noted in the combined drug treatments as noted in the Results. On the eighth day of drug treatment, all animals began behavioral testing in the Porsolt swim test, also known as the forced swim stress test. All animals were tested in black cylinders measuring 36 cm in diameter, and these cylinders were filled with water of 23-25° C. following procedures as reviewed previously (Bogdanova et al., 2013), consistent with the original procedure of Porsolt and coworkers (Porsolt et al., 1978). All animals were given a pre-swim exposure test on the first day of testing, 24 h before the swim test session the following day. On the first day of testing, animals were exposed to the water for 15 min, and on the second day were given a 5 min trial. The two dependent measures used for forced swim stress was the latency to first immobility episode (immobility lasting >5 s) and the total immobility time over the 5 min period, both recorded on the second day of testing. All movements of the animal were recorded by behavioral scanning software (ANY-maze, Stoelting Co., Wood Dale, Ill., USA). Drug administration: All drugs used in the study, 3-aminobenzamide (Product no. A0788; 3-AB), 5-AIQ hydrochloride (Product no. […] F132), were obtained from Sigma-Aldrich, Inc. (St. Louis, Mo., USA). Statistical analysis: A Grubb's test was used to remove statistical outliers from each dataset prior to analyses. Statistical analyses were otherwise performed as indicated using IBM SPSS Statistics (version 23.0) and data were graphed using GraphPad Prism (version 5.0b, GraphPad Software, La Jolla, Calif.). An independent sample t-test was used to analyze data generated when only two groups were analyzed. An analysis of variance (ANOVA) was used to test multiple group comparisons. For post hoc statistical comparisons, a Bonferroni-correction was applied (as noted) to limit Type I error in multiple post-hoc comparisons. For the combined drug treatment experiment, ANOVA was followed by a Dunnett's Multiple Comparison test that focused comparisons of drug treatment groups to the vehicle control group. All data are expressed as mean±standard error of the mean.

[2] = system: Male Sprague-Dawley rats; test: Social interaction test in rats exposed to repeated social defeat stress plus chronic unpredictable stress
Protocol: (§1) Social Defeat Stress (SDS): SDS was induced as described previously (Covington and Miczek, 2001; Szebeni et al., 2016). Briefly, Long-Evans hooded rats (‘residents’) were each mated with a female (ligated) rat for a 7-day period. On the eighth day and after removal of the female, an ‘intruder’ rat was placed into the cage for a 5 min period and dominance was established by the resident. Defeat was produced between 0900 and 1000 h daily for 10 consecutive days. Control rats not exposed to defeat were handled each day during this same time period.
Chronic unpredictable stress (CUS): CUS was performed after SDS on the same day, but at random times either during the day or evening as previously described (Bondi et al., 2008; Szebeni et al., 2016). Different stressors were randomly arranged and occurred at random times during the light or dark cycle of each day for 10 consecutive days. All rats were exposed twice to each of 5 different stressors, which included a 30-min restraint, a 1-h shaking/crowding, 10-min cold water (18° C.) swim, a 15-min warm water swim (25° C.) and a 24-h tipped cage. […]
Social interaction test: The social interaction test was performed 24 h after the last social defeat stress on day 11 of behavioral testing. […] The amount of time spent in a defined interaction zone close to the metal divider was measured using ANYmaze video tracking (Stoelting Co., Wood Dale Ill., USA). […]

[3] = system: Male Sprague-Dawley rats; test: Sucrose preference in rats exposed to repeated social defeat stress plus chronic unpredictable stress; details: 2 h prior to social defeat, vs stressed rats treated with vehicle
Protocol: as §1
Chronic unpredictable stress (CUS): CUS was performed after SDS on the same day, but at random times either during the day or evening as previously described (Bondi et al., 2008; Szebeni et al., 2016). Different stressors were randomly arranged and occurred at random times during the light or dark cycle of each day for 10 consecutive days. […]
Sucrose Preference: Sucrose preference was performed during the final three days of induction of social defeat stress (days 8-10), using a procedure based on that of D'Aquila et al. (1997). […] Amounts of sucrose consumed were calculated as percentages of the total amount of fluid consumed during the 2 h period on each of the 3 days of testing. […] The preference of sucrose over water was used as a measure of animal's sensitivity to reward and expressed as a percent. […]

[4] = third experiment, 4 mg/kg i.p. 3 times over 24 h, alone, Dunnett's test vs vehicle
[5] = third experiment, 2.5 mg/kg i.p. 3 times over 24 h, alone, Dunnett's test vs vehicle

Compound: NC(=O)c1cccc(N)c1 [3-AB, 3-aminobenzamide]
- time spent immobile ([1]; preliminary experiment, 40 mg/kg i.p. daily for 10 days, 2 h after injection, vs saline-treated controls, t=2.36, p<0.05): significantly decreased
- latency to immobility ([1]; preliminary experiment, 40 mg/kg i.p. daily for 10 days, 2 h after injection, vs saline-treated controls, t=5.56, p<0.001): significant increase
- latency to immobility ([1]; second experiment, 0.4 mg/kg i.p. once daily for 10 days, vs vehicle control group): did not significantly differ
- latency to immobility ([1]; second experiment, 4 mg/kg i.p. once daily for 10 days, vs vehicle control group): did not significantly differ
- latency to immobility ([1]; second experiment, 40 mg/kg i.p. injections 23.5, 5 and 1 h before testing (3-AB×3), vs vehicle control group): did not significantly differ
- immobility time ([1]; second experiment, 40 mg/kg i.p. injections 23.5, 5 and 1 h before testing (3-AB×3), vs vehicle group): significantly less time immobile
- immobility time ([1]; second experiment, 40 mg/kg i.p. once daily for 10 days, vs vehicle group): significantly less time immobile
- latency to immobility ([1]; second experiment, 40 mg/kg i.p. once daily for 10 days, vs vehicle-treated control rats): significantly greater
- immobility time [1, 4]: did not significantly affect
- latency to immobility [1, 4]: did not significantly affect
- time spent in the interaction zone ([2]; 40 mg/kg i.p. daily for 10 days, vs vehicle-treated rats exposed to stressors, p=0.014): significantly greater
- sucrose preference ([3]; 40 mg/kg i.p. daily for 10 days, p=0.024): significantly higher

Compound: Nc1cccc2c(=O)[nH]ccc12 [5-AIQ, 5-aminoisoquinolinone]
- latency to immobility ([1]; second experiment, 0.3 mg/kg i.p. once daily for 10 days, vs vehicle control group): did not significantly differ
- immobility time ([1]; second experiment, 0.3 mg/kg i.p. once daily for 10 days, vs vehicle group): significantly less time immobile

Compound: CNCCC(Oc1ccc(C(F)(F)F)cc1)c1ccccc1 (centres unmarked) [fluoxetine]
- immobility time ([1]; second experiment, 10 mg/kg i.p. injections 23.5, 5 and 1 h before testing, vs vehicle group): significantly less time immobile
- latency to immobility ([1]; second experiment, 10 mg/kg i.p. injections 23.5, 5 and 1 h before testing, vs vehicle-treated control rats): significantly greater
- immobility time [1, 5]: did not significantly affect
- latency to immobility [1, 5]: did not significantly affect
- time spent in the interaction zone ([2]; 10 mg/kg i.p. daily for 10 days, difference vs vehicle-treated rats exposed to stress, appeared greater, p=0.073): did not reach statistical significance
- sucrose preference ([3]; 10 mg/kg i.p. daily for 10 days, p=0.005): significantly higher
